Experimental data: PubChem BioAssay AID1963985 (Molecular Pharmacology Branch, DTP, NCI, 2024)

Test system: 252836-082-R-J2-PDC tumor spheroids, viability
Assay: Anticancer human tumor 252836-082-R-J2-PDC patient-derived head and neck squamous cell carcinoma cell line growth inhibition [PI3K]
Details: spheroids with HUVEC and MSC; for IC50: curve of first compound; for viability, T/C: stronger effect = lower value
Procedure, shortened: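 We assembled tumor spheroids that included a stromal compartment of HUVEC and MSCs, then exposed them to targeted agents alone and together with PI3K pathway inhibitors. Concentration series descended by half-log from clinically achievable Cmax levels. Viability served as the endpoint.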
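Also: spheroids exposed to agents for seven days before readout.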
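For viability, T/C in this document: percent of vehicle DMSO control viability so 100% = untreated growth.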

Question: With `CC1(C)CCC(Nc2ncc(C(F)(F)F)c(-c3c[nH]c4c(P(C)(C)=O)c(C#N)ccc34)n2)CN1` (centres undefined) + CC(Nc1ncnc2nc[nH]c12)c1cc2cccc(Cl)c2c(=O)n1-c1ccccc1 as the compound, how does the IC50 (second compound 0.0316 µM) read?
Answer: < 31.6 nM

Question: What about the IC50 (second compound 0.1 µM) of the same compound?
Answer: < 31.6 nM

Question: What about the IC50 (second compound 0.316 µM) of the same compound?
Answer: < 31.6 nM

Question: What about the IC50 (second compound 1 µM) of the same compound?
Answer: < 31.6 nM

Question: What about the IC50 (second compound 3.16 µM) of the same compound?
Answer: < 31.6 nM

Question: And the IC50 (second compound 10 µM)?
Answer: < 31.6 nM

Question: And the viability, T/C (second compound 0.0316 µM, first compound 0.0316 µM)?
Answer: 31.1%

Question: And the viability, T/C (second compound 0.0316 µM, first compound 0.1 µM)?
Answer: 26.6%

Question: What about the viability, T/C (second compound 0.0316 µM, first compound 0.316 µM) of the same compound?
Answer: 28.6%

Question: And the viability, T/C (second compound 0.0316 µM, first compound 1 µM)?
Answer: 32.2%

Question: What about the viability, T/C (second compound 0.0316 µM, first compound 3.16 µM) of the same compound?
Answer: 34.7%

Question: What about the viability, T/C (second compound 0.0316 µM, first compound 10 µM) of the same compound?
Answer: 4.13%

Question: What about the viability, T/C (second compound 0.1 µM, first compound 0.0316 µM) of the same compound?
Answer: 34.2%

Question: And the viability, T/C (second compound 0.1 µM, first compound 0.1 µM)?
Answer: 27.4%

Question: What about the viability, T/C (second compound 0.1 µM, first compound 0.316 µM) of the same compound?
Answer: 31.6%

Question: And the viability, T/C (second compound 0.1 µM, first compound 1 µM)?
Answer: 26.4%

Question: What about the viability, T/C (second compound 0.1 µM, first compound 3.16 µM) of the same compound?
Answer: 36.9%

Question: And the viability, T/C (second compound 0.1 µM, first compound 10 µM)?
Answer: 5.65%

Question: And the viability, T/C (second compound 0.316 µM, first compound 0.0316 µM)?
Answer: 32.4%

Question: And the viability, T/C (second compound 0.316 µM, first compound 0.1 µM)?
Answer: 32.9%

Question: What about the viability, T/C (second compound 0.316 µM, first compound 0.316 µM) of the same compound?
Answer: 27.7%

Question: And the viability, T/C (second compound 0.316 µM, first compound 1 µM)?
Answer: 30.1%

Question: What about the viability, T/C (second compound 0.316 µM, first compound 3.16 µM) of the same compound?
Answer: 33.8%

Question: And the viability, T/C (second compound 0.316 µM, first compound 10 µM)?
Answer: 4.38%

Question: And the viability, T/C (second compound 1 µM, first compound 0.0316 µM)?
Answer: 27.9%

Question: And the viability, T/C (second compound 1 µM, first compound 0.1 µM)?
Answer: 31.8%

Question: And the viability, T/C (second compound 1 µM, first compound 0.316 µM)?
Answer: 32.4%

Question: What about the viability, T/C (second compound 1 µM, first compound 1 µM) of the same compound?
Answer: 28.7%

Question: And the viability, T/C (second compound 1 µM, first compound 3.16 µM)?
Answer: 33.4%

Question: What about the viability, T/C (second compound 1 µM, first compound 10 µM) of the same compound?
Answer: 4.12%

Question: What about the viability, T/C (second compound 3.16 µM, first compound 0.0316 µM) of the same compound?
Answer: 26.3%

Question: What about the viability, T/C (second compound 3.16 µM, first compound 0.1 µM) of the same compound?
Answer: 26.2%

Question: And the viability, T/C (second compound 3.16 µM, first compound 0.316 µM)?
Answer: 28%

Question: What about the viability, T/C (second compound 3.16 µM, first compound 1 µM) of the same compound?
Answer: 31.9%

Question: And the viability, T/C (second compound 3.16 µM, first compound 3.16 µM)?
Answer: 25.9%

Question: And the viability, T/C (second compound 3.16 µM, first compound 10 µM)?
Answer: 3.79%

Question: What about the viability, T/C (second compound 10 µM, first compound 0.0316 µM) of the same compound?
Answer: 27.2%

Question: And the viability, T/C (second compound 10 µM, first compound 0.1 µM)?
Answer: 21.5%

Question: What about the viability, T/C (second compound 10 µM, first compound 0.316 µM) of the same compound?
Answer: 26%

Question: And the viability, T/C (second compound 10 µM, first compound 1 µM)?
Answer: 23%

Question: And the viability, T/C (second compound 10 µM, first compound 3.16 µM)?
Answer: 22.6%

Question: And the viability, T/C (second compound 10 µM, first compound 10 µM)?
Answer: 1.83%

Question: With `Cn1cnc2c(F)c(Nc3ccc(Br)cc3Cl)c(C(=O)NOCCO)cc21` + COc1c(OCCCN2CCOCC2)ccc2c3n(c(=NC(=O)c4cnc(N)nc4)nc12)CCN3 as the compound, how does the IC50 (second compound 0.00316 µM) read?
Answer: 2050 nM

Question: And the IC50 (second compound 0.01 µM)?
Answer: 1070 nM

Question: And the IC50 (second compound 0.0316 µM)?
Answer: 78.4 nM

Question: And the IC50 (second compound 0.1 µM)?
Answer: < 9.49 nM

Question: What about the IC50 (second compound 0.316 µM) of the same compound?
Answer: < 9.49 nM

Question: And the IC50 (second compound 1 µM)?
Answer: < 9.49 nM

Question: What about the viability, T/C (second compound 0.00316 µM, first compound 0.00949 µM) of the same compound?
Answer: 91.6%

Question: And the viability, T/C (second compound 0.00316 µM, first compound 0.03 µM)?
Answer: 71.5%

Question: What about the viability, T/C (second compound 0.00316 µM, first compound 0.0949 µM) of the same compound?
Answer: 82.4%

Question: What about the viability, T/C (second compound 0.00316 µM, first compound 0.3 µM) of the same compound?
Answer: 80.4%

Question: And the viability, T/C (second compound 0.00316 µM, first compound 0.949 µM)?
Answer: 75.3%

Question: What about the viability, T/C (second compound 0.00316 µM, first compound 3 µM) of the same compound?
Answer: 37.5%

Question: What about the viability, T/C (second compound 0.01 µM, first compound 0.00949 µM) of the same compound?
Answer: 73.5%

Question: What about the viability, T/C (second compound 0.01 µM, first compound 0.03 µM) of the same compound?
Answer: 70.3%

Question: And the viability, T/C (second compound 0.01 µM, first compound 0.0949 µM)?
Answer: 76.7%

Question: What about the viability, T/C (second compound 0.01 µM, first compound 0.3 µM) of the same compound?
Answer: 65.2%

Question: And the viability, T/C (second compound 0.01 µM, first compound 0.949 µM)?
Answer: 52.1%

Question: What about the viability, T/C (second compound 0.01 µM, first compound 3 µM) of the same compound?
Answer: 35.5%

Question: And the viability, T/C (second compound 0.0316 µM, first compound 0.00949 µM)?
Answer: 59.6%

Question: What about the viability, T/C (second compound 0.0316 µM, first compound 0.03 µM) of the same compound?
Answer: 48.8%

Question: What about the viability, T/C (second compound 0.0316 µM, first compound 0.0949 µM) of the same compound?
Answer: 49%

Question: What about the viability, T/C (second compound 0.0316 µM, first compound 0.3 µM) of the same compound?
Answer: 46.2%

Question: What about the viability, T/C (second compound 0.0316 µM, first compound 0.949 µM) of the same compound?
Answer: 34.1%

Question: What about the viability, T/C (second compound 0.0316 µM, first compound 3 µM) of the same compound?
Answer: 25.1%

Question: What about the viability, T/C (second compound 0.1 µM, first compound 0.00949 µM) of the same compound?
Answer: 31.6%

Question: What about the viability, T/C (second compound 0.1 µM, first compound 0.03 µM) of the same compound?
Answer: 33.3%

Question: And the viability, T/C (second compound 0.1 µM, first compound 0.0949 µM)?
Answer: 33.1%

Question: And the viability, T/C (second compound 0.1 µM, first compound 0.3 µM)?
Answer: 29.5%

Question: What about the viability, T/C (second compound 0.1 µM, first compound 0.949 µM) of the same compound?
Answer: 18%

Question: And the viability, T/C (second compound 0.1 µM, first compound 3 µM)?
Answer: 7.77%

Question: What about the viability, T/C (second compound 0.316 µM, first compound 0.00949 µM) of the same compound?
Answer: 14.8%

Question: And the viability, T/C (second compound 0.316 µM, first compound 0.03 µM)?
Answer: 12.2%

Question: And the viability, T/C (second compound 0.316 µM, first compound 0.0949 µM)?
Answer: 9.2%

Question: What about the viability, T/C (second compound 0.316 µM, first compound 0.3 µM) of the same compound?
Answer: 7.79%

Question: And the viability, T/C (second compound 0.316 µM, first compound 0.949 µM)?
Answer: 3.35%

Question: What about the viability, T/C (second compound 0.316 µM, first compound 3 µM) of the same compound?
Answer: 0.38%

Question: And the viability, T/C (second compound 1 µM, first compound 0.00949 µM)?
Answer: 2.53%

Question: What about the viability, T/C (second compound 1 µM, first compound 0.03 µM) of the same compound?
Answer: 2.17%

Question: What about the viability, T/C (second compound 1 µM, first compound 0.0949 µM) of the same compound?
Answer: 2.32%

Question: And the viability, T/C (second compound 1 µM, first compound 0.3 µM)?
Answer: 0.64%

Question: What about the viability, T/C (second compound 1 µM, first compound 0.949 µM) of the same compound?
Answer: 3.69%

Question: What about the viability, T/C (second compound 1 µM, first compound 3 µM) of the same compound?
Answer: 0.18%
